Experiments:
[1] = target: T1, glutathione S-transferase (GST)-linked full-length human Syk protein (Homo sapiens, UniProt P43405); assay: Syk enzyme assay; type: biochemical; conditions: 0.83 nM Syk, time-resolved fluorescence; read-out: IC50 of Syk-inhibitory activity
T1 construct: glutathione S-transferase (GST)-linked full-length human Syk protein; purchased Carna Biosciences; host or cells: Baculovirus expression system
In short: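 Phosphotyrosine on a biotin-peptide substrate (0.5 μM) was read by time-resolved fluorescence at 615 and 665 nm with Eu-anti-pTyr antibody and APC-streptavidin after 1 h EDTA stop.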

[2] = tested on: THP-1 cells (TNFα secretion on human IgG-coated plate); assay: TNFα generation assay; type: cell-based; conditions: IFN-γ differentiated THP-1 cells, 7 hours, AlphaLISA, read-out: IC50 of TNFα generation inhibitory activity
In short: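 THP-1 cells were differentiated with 10 ng/ml IFN-γ for 2 days, then preincubated with compound for 30 min at room temperature. They were then plated at 5×10^4 cells/well on plates coated with human IgG (10 μg/ml). TNFα secreted over 7 h of culture was quantified by AlphaLISA.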

IC50 [1] [nM] | IC50 [2] [nM] | SMILES
< 10 | 130 to 200 | CC(C)C[C@@H](Nc1nc(Nc2ccc3c(c2)c(OC(F)F)nn3C)c(C(N)=O)cc1F)[C@H](C)N [Example 2-172, 6-(((2S,3R)-2-amino-5-methylhexan-3-yl)amino)-2-((3-(difluoromethoxy)-1-methyl-1H-indazol-5-yl)amino)-5-fluoronicotinamide]
< 10 | 65 to 130 | CNc1ncc(Nc2nc(N[C@@H]3CCCC[C@@H]3N)c(F)cc2C(N)=O)cc1F [Example 2-273, 6-(((1R,2S)-2-aminocyclohexyl)amino)-5-fluoro-2-((5-fluoro-6-(methylamino)pyridin-3-yl)amino)nicotinamide]
< 10 | 65 to 130 | COc1cc(Nc2nc(N[C@H](C3CCC3)[C@H](C)N)c(F)cc2C(N)=O)ccn1 [Example 2-5, 6-(((1R,2S)-2-amino-1-cyclobutylpropyl)amino)-5-fluoro-2-((2-methoxypyridin-4-yl)amino)nicotinamide]
< 10 | < 65 | CC[C@H](N)[C@@H](C)Nc1nc(Nc2ccc3cnn(C)c3c2)c(C(N)=O)cc1F [Example 2-39, 6-(((2R,3S)-3-aminopentan-2-yl)amino)-5-fluoro-2-((1-methyl-1H-indazol-6-yl)amino)nicotinamide]
< 10 | 65 to 130 | CC[C@H](N)[C@@H](C)Nc1nc(Nc2cc(F)cc3c2cnn3CCOC)c(C(N)=O)cc1F [Example 2-378, 6-(((2R,3S)-3-aminopentan-2-yl)amino)-5-fluoro-2-((6-fluoro-1-(2-methoxyethyl)-1H-indazol-4-yl)amino)nicotinamide]
< 10 | 130 to 200 | COc1nn(C)c2ncc(Nc3nc(N[C@@H]4CCOC[C@@H]4N)c(F)cc3C(N)=O)cc12 [Example 2-334, 6-(((3R,4R)-3-aminotetrahydro-2H-pyran-4-yl)amino)-5-fluoro-2-((3-methoxy-1-methyl-1H-pyrazolo[3,4-b]pyridin-5-yl)amino)nicotinamide]
< 10 | 65 to 130 | COc1ccc(Nc2nc(N[C@H](C3CCC3)[C@H](C)N)c(F)cc2C(N)=O)cc1OC [Example 2-29]
< 10 | 65 to 130 | Cc1cccc(Nc2nc(N[C@@H]3CCCC[C@@H]3N)c(F)cc2C(N)=O)c1 [Example 2-434, 6-(((1R,2S)-2-aminocyclohexyl)amino)-5-fluoro-2-(m-tolylamino)nicotinamide]
< 10 | 65 to 130 | COc1cc(Nc2nc(N[C@H](c3ccc(F)cc3)[C@H](C)N)c(F)cc2C(N)=O)cc(OC)c1 [Example 2-269, 6-(((1R,2S)-2-amino-1-(4-fluorophenyl)propyl)amino)-2-((3,5-dimethoxyphenyl)amino)-5-fluoronicotinamide]
10 to 50 | 130 to 200 | CC[C@H](N)[C@@H](C)Nc1nc(Nc2cnc(C)c(-n3nccn3)c2)c(C(N)=O)cc1F [Example 2-33, 6-(((2R,3S)-3-aminopentan-2-yl)amino)-5-fluoro-2-((6-methyl-5-(2H-1,2,3-triazol-2-yl)pyridin-3-yl)amino)nicotinamide]
< 10 | < 65 | NC(=O)c1cc(F)c(N[C@@H]2CCCC[C@@H]2N)nc1Nc1cccc(-n2ccnn2)c1 [Example 2-438, 2-((3-(1H-1,2,3-triazol-1-yl)phenyl)amino)-6-(((1R,2S)-2-aminocyclohexyl)amino)-5-fluoronicotinamide]
< 10 | 65 to 130 | CC(C)C[C@@H](Nc1nc(Nc2ccc3cnn(C)c3c2)c(C(N)=O)cc1F)[C@H](C)N [Example 2-37, 6-(((2S,3R)-2-amino-5-methylhexan-3-yl)amino)-5-fluoro-2-((1-methyl-1H-indazol-6-yl)amino)nicotinamide]
< 10 | 65 to 130 | CC(=O)c1cccc(Nc2nc(N[C@H](C3CC3)[C@H](C)N)c(F)cc2C(N)=O)c1 [Example 2-482, 2-((3-acetylphenyl)amino)-6-(((1R,2S)-2-amino-1-cyclopropylpropyl)amino)-5-fluoronicotinamide]
< 10 | 65 to 130 | COc1cc(Nc2nc(N[C@H](C3CC3)[C@H](C)N)c(F)cc2C(N)=O)cc(OC)c1 [Example 2-47, 6-(((1R,2S)-2-amino-1-cyclopropylpropyl)amino)-2-((3,5-dimethoxyphenyl)amino)-5-fluoronicotinamide]
< 10 | < 65 | C[C@H](N)[C@H](Nc1nc(Nc2ccc3cnn(C)c3c2)c(C(N)=O)cc1F)C1CCC1 [Example 2-10, 6-(((1R,2S)-2-amino-1-cyclobutylpropyl)amino)-5-fluoro-2-((1-methyl-1H-indazol-6-yl)amino)nicotinamide]
< 10 | 130 to 200 | COc1cc(Nc2nc(N[C@H](C3CC3)[C@H](C)N)c(F)cc2C(N)=O)ccc1C [Example 2-49, 6-(((1R,2S)-2-amino-1-cyclopropylpropyl)amino)-5-fluoro-2-((3-methoxy-4-methylphenyl)amino)nicotinamide]

IC50 [1] [nM] | IC50 [2] [nM] | SMILES
< 10 | 130 to 200 | COCCn1nc(OC)c2cc(Nc3nc(N[C@H](C4CC4)[C@H](C)N)c(F)cc3C(N)=O)ccc21 [Example 2-539]
< 10 | 65 to 130 | COc1cc(Nc2nc(N[C@H](c3cccc(F)c3)[C@H](C)N)c(F)cc2C(N)=O)cc(OC)n1 [Example 2-414]
< 10 | 65 to 130 | COC[C@@H](Nc1nc(Nc2cc(Cl)c3c(cnn3C)c2)c(C(N)=O)cc1F)[C@H](C)N [Example 2-149, 6-(((2S,3S)-3-amino-1-methoxybutan-2-yl)amino)-2-((7-chloro-1-methyl-1H-indazol-5-yl)amino)-5-fluoronicotinamide]
10 to 50 | 130 to 200 | Cc1ncc(Nc2nc(N[C@@H]3CCOC[C@@H]3N)c(F)cc2C(N)=O)cc1F [Example 2-225, 6-(((3R,4R)-3-aminotetrahydro-2H-pyran-4-yl)amino)-5-fluoro-2-((5-fluoro-6-methylpyridin-3-yl)amino)nicotinamide]
< 10 | 65 to 130 | CCC[C@@H](Nc1nc(Nc2ccc3c(c2)c(OC)nn3C)c(C(N)=O)cc1F)[C@H](C)N [Example 2-80, 6-(((2S,3R)-2-aminohexan-3-yl)amino)-5-fluoro-2-((3-methoxy-1-methyl-1H-indazol-5-yl)amino)nicotinamide]
< 10 | 65 to 130 | COc1nn(C)c2c(F)cc(Nc3nc(N[C@@H]4CCOC[C@@H]4N)c(F)cc3C(N)=O)cc12 [Example 2-211, 6-(((3R,4R)-3-aminotetrahydro-2H-pyran-4-yl)amino)-5-fluoro-2-((7-fluoro-3-methoxy-1-methyl-1H-indazol-5-yl)amino)nicotinamide]
< 10 | 130 to 200 | COc1nn(C)c2c(F)cc(Nc3nc(N[C@@H](CN)CC(C)C)c(F)cc3C(N)=O)cc12 [Example 2-151, (R)-6-((1-amino-4-methylpentan-2-yl)amino)-5-fluoro-2-((7-fluoro-3-methoxy-1-methyl-1H-indazol-5-yl)amino)nicotinamide]
< 10 | < 65 | C[C@H](N)[C@H](Nc1nc(Nc2ccc3c(cnn3CC(F)F)c2)c(C(N)=O)cc1F)C1CC1 [Example 2-71]
< 10 | 65 to 130 | COc1cccc(Nc2nc(N[C@H](C3CCC3)[C@H](C)N)c(F)cc2C(N)=O)c1 [Example 2-27, 6-(((1R,2S)-2-amino-1-cyclobutylpropyl)amino)-5-fluoro-2-((3-methoxyphenyl)amino)nicotinamide]
< 10 | 130 to 200 | COCCn1nc(C)c2cc(Nc3nc(N[C@H](CC(C)C)[C@H](C)N)c(F)cc3C(N)=O)ccc21 [Example 2-134, 6-(((2S,3R)-2-amino-5-methylhexan-3-yl)amino)-5-fluoro-2-((1-(2-methoxyethyl)-3-methyl-1H-indazol-5-yl)amino)nicotinamide]
< 10 | 65 to 130 | CC[C@@H](Nc1nc(Nc2cc(Cl)c3c(cnn3C)c2)c(C(N)=O)cc1F)[C@H](C)N [Example 2-148, 6-(((2S,3R)-2-aminopentan-3-yl)amino)-2-((7-chloro-1-methyl-1H-indazol-5-yl)amino)-5-fluoronicotinamide]
< 10 | 65 to 130 | Cc1nn(CC(F)F)c2ccc(Nc3nc(N[C@@H](CN)CC(C)C)c(F)cc3C(N)=O)cc12 [Example 2-137]
10 to 50 | 130 to 200 | CC[C@@H](Nc1nc(Nc2cnc(C)c(F)c2)c(C(N)=O)cc1F)[C@H](C)N [Example 2-222, 6-(((2S,3R)-2-aminopentan-3-yl)amino)-5-fluoro-2-((5-fluoro-6-methylpyridin-3-yl)amino)nicotinamide]
< 10 | 130 to 200 | CCC[C@@H](Nc1nc(Nc2cnc(C)c(F)c2)c(C(N)=O)cc1F)[C@H](C)N [Example 2-223, 6-(((2S,3R)-2-aminohexan-3-yl)amino)-5-fluoro-2-((5-fluoro-6-methylpyridin-3-yl)amino)nicotinamide]
< 10 | 130 to 200 | COCCn1ncc2c(Nc3nc(N[C@@H]4CCCC[C@@H]4N)c(F)cc3C(N)=O)cc(F)cc21 [Example 2-374, 6-(((1R,2S)-2-aminocyclohexyl)amino)-5-fluoro-2-((6-fluoro-1-(2-methoxyethyl)-1H-indazol-4-yl)amino)nicotinamide]
< 10 | 130 to 200 | C[C@H](N)[C@H](Nc1nc(Nc2ccc3c(c2)c(N(C)C)nn3C)c(C(N)=O)cc1F)C1CC1 [Example 2-72, 6-(((1R,2S)-2-amino-1-cyclopropylpropyl)amino)-2-((3-(dimethylamino)-1-methyl-1H-indazol-5-yl)amino)-5-fluoronicotinamide]

Reference: US9051310B2, “Nicotinamide derivative or salt thereof” (FUJIFILM Corporation, priority 2011, dated 2015)
